Experimental data: patent publication US20150374784A1, “COMPOSITIONS AND METHODS FOR REDUCING GERM CELL DEATH” (Los Angeles Biomedical Research Institute at Harbor-UCLA …, priority 2014, published 2015)

Key:
sperm = assay: Cauda epididymal sperm count after multiple doses of CP in mice; type: in vivo, mouse; settings: 28 days; HNG 10 mg/kg BW daily subcutaneously; CP 150 mg/kg BW IP, 6 doses at 5-day intervals
Protocol: The objective of this study was to investigate whether HNG has protective effect on sperm output after multiple doses of CP in mice. Thirty adult male mice (C57BL/6J) were randomized into 4 groups: 1) 5 as control; 2) 5 received daily subcutaneously injection of HNG (10 mg/kg BW); 3) 10 were given 6 doses of CP (150 mg/kg BW) intraperitoneally at 5-day intervals; 4) 10 received both HNG and CP. All mice were killed at 28 days. Plasma HNG and IGF-1 levels were measured by ELISAs. The cauda epididymal sperm count was performed using a hemocytometer.

mouse B16 melanoma cells = assay: Number of metastatic lung tumors, B16 melanoma (Example 9); type: in vivo; settings: day 21; CP 200 mg/kg single IP; HNG 5 mg/kg daily IP 14 days
Protocol: (§1) Methods: Adult male mouse (n=5/group) were seeded with mouse B16 melanoma cells (100,000 cells/mouse) via tail vein on day 1. One week after melanoma cell inoculation, mice were treated either with a single intraperitoneal injection (IP) of CP (200 mg/kg), or daily IP injections of HNG (5 mg/kg), or both for 14 days. Mice were sacrificed at day 21 and lungs were fixed in formaldehyde. Immunohistochemistry was performed on lung metastases with antibodies against phosphorylated-AMPK (p-AMPK), p-4E-BP1 (downstream effector of mTOR) and Ki-67 antigen (a marker of cell proliferation).

Ki-67 antigen = assay: Immunohistochemistry of lung metastases: Ki-67; type: in vivo, mouse; settings: CP 200 mg/kg single IP, HNG 5 mg/kg daily IP 14 days
Protocol: as §1

[1] = tested on: phosphorylated-AMPK (p-AMPK); assay: Immunohistochemistry of lung metastases: p-AMPK; type: in vivo, mouse; settings: mean±SD; CP 200 mg/kg single IP; HNG 5 mg/kg daily IP 14 days
Protocol: as §1

male germ cells = type: in vivo; settings: B16 tumor-bearing mice
Protocol: A total of 25 young adult mice (10-12 weeks) were randomly divided into 5 groups (n=5 per group). Five mice were used as control. Twenty mice were inoculated intravenously with B16 murine melanoma cells (2×10^5 cells/mouse). Among these 20 tumor-inoculated mice, 5 mice received no further treatment. After one week, the remaining 15 mice were divided into 3 groups and injected with: 1) HNG daily IP (5 mg/Kg body weight) for 2 weeks; 2) CP (200 mg/Kg body weight IP single injection); 3) combined CP with HNG treatment (same doses as above). All mice were sacrificed 3 weeks after tumor inoculation, and 2 weeks after HNG and/or CP treatment. The animals were sacrificed with 5% pentobarbital (200 mg/kg body weight) IP injection after which blood was collected from the right atrium of the heart. One of the testes from each mouse was immersed fixed in Bouin's solution, and the mice were perfused with saline and subsequently perfuse-fixed with 5% glutaraldehyde in 0.05 M cacodylate buffer (pH 7.4). The lungs were dissected out and post fixed in 5% glutaraldehyde solution for 24 hours and stored in cacodylate buffer at 4° C. for the subsequent tumor count (Lue, et al., 2010; Lue, et al., 2009).

ovaries = type: in vivo; settings: day 14; HNG 5 mg/kg/day IP; CP 100 mg/Kg single IP
Protocol: A mouse mammary cancer model was used which utilizes 4T1 cells transfected with the luciferase gene. Growth and size of 4T1 mammary tumors were detected by bioluminescence imaging (IVIS Luminia II, Perkin Elmer, Waltham, Mass.). Mice (n=5 to 7 per group) were inoculated with 1×10^6 4 T1 cells into the right third mammary gland, and 7 days later they were left untreated or treated with HNG (5 mg/kg/day IP), CP (100 mg/Kg single IP) or HNG+CP for 14 days. Animals were sacrificed and both ovaries were removed from each mouse on day 14 after the start of treatment. Serial 5-micrometer sections were made. Every 5th section was examined and the number of primordial, primary, and secondary follicles counted (Kim S Y, et al., 2013; Bristol-Gould S K, et al., 2006; Roti Roti E C, et al., 2012). In addition, TUNEL staining for apoptotic cells and oocytes was quantified (Perez G I, et al., 1997; Ben-Aharon I, et al., 2010).

4T1 cells = assay: 4T1 mouse mammary cancer model, tumor size and weight; settings: in vivo
Protocol: A mouse mammary cancer model was used which utilizes 4T1 cells transfected with the luciferase gene. Growth and size of 4T1 mammary tumors were detected by bioluminescence imaging (IVIS Luminia II, Perkin Elmer, Waltham, Mass.). Mice (n=5 to 7 per group) were inoculated with 1×10^6 4 T1 cells into the right third mammary gland, and 7 days later they were left untreated or treated with HNG (5 mg/kg/day IP), CP (100 mg/Kg single IP) or HNG+CP for 14 days. Bioluminescence imaging was conducted at days 7 and 12. Animals were sacrificed and tumors were removed on day 14 after the start of treatment. Mammary tumors were smaller in CP and CP+HNG groups compared to the untreated and HNG-treated animals (Data images not shown).

B16 (melanoma) = assay: Autophagy induction in B16 (fluorescent microscopy, western blot of LC3-II); type: cell-based, mouse
[2] = tested on: HEK293 (normal embryonic kidney cells); assay: Autophagy induction (LC3-II, mRFP-GFP-LC3) in HEK293; type: cell-based
Excerpt: (§2) The increased level of LC3-II, a marker of autophagosome was examined by Western blot and immunocytochemistry. The increase of autophagosomes and autolysosomes in HEK293 cells stably expressing mRFP-GFP-LC3, a dual-tag reporter of autophagy, was examined following humanin treatment. In addition, the signaling pathways activated by humanin using a phospho-antibody array in SH-SY5Y cells was investigated. […] Both activation and suppression of autophagy are involved in cancer pathogenesis and treatment, depending on the context.

SH-SY5Y (neuroblastoma) = assay: Autophagy induction in SH-SY5Y; type: cell-based
Excerpt: as §2

| Compound | cauda epididymal sperm count (sperm) | decrease in number of metastatic lung tumors compared to non-treated mice (mouse B16 melanoma cells) [%] | mean Ki-67 index (Ki-67 antigen) | percent p-AMPK positive cells in metastatic lung melanoma [1] [%] | testis weight (male germ cells; 2 weeks after CP 200 mg/Kg single IP) | germ cell apoptosis (percent of seminiferous tubules containing apoptotic germ cells) (male germ cells; 2 weeks after treatment, CP 200 mg/Kg single IP, HNG 5 mg/Kg daily IP) | ovarian follicles in representative sections (ovaries) | mammary tumor size (bioluminescence imaging) (4T1 cells) | autophagy (B16 (melanoma)) | autophagy [2] | autophagy (SH-SY5Y (neuroblastoma)) |
| --- | --- | --- | --- | --- | --- | --- | --- | --- | --- | --- | --- |
| O=P1(N(CCCl)CCCl)NCCCO1 (centres unmarked) [CP, cyclophosphamide monohydrate] | 0.5±0.1 ×10^6/mg | ~50 | 30.0±16.2 | 11.3±15.6 | significantly decreased the testis weight | significantly increased germ cell apoptosis | have less secondary, but more atretic follicles | smaller | – | – | – |
| MAPRGFSCLLLLTSEIDLPVKRRA [HN, 24-amino acid mitochondrial derived peptide] | – | – | – | – | – | – | – | – | induces autophagy | induces autophagy | induces autophagy |
